According to ChEMBL document CHEMBL1201862, “PubChem BioAssay data set” (2004):
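Compound exposure: 48 hours, 5 concentrations, 96-well plates. GI50 is the concentration that inhibits growth by half.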 Active and inactive are the calls of the source. Rule as the data show it: active = GI50 up to about 1.1 µM and inactive = higher.

How the values were obtained:
Assay in all cases: DTP human tumour cell line panel, 48 h
[1] = test system: SNB-19
[2] = test system: SK-MEL-2
[3] = test system: SNB-75
[4] = test system: U-251
[5] = test system: MDA-MB-435
[6] = test system: RPMI-8226
[7] = test system: OVCAR-3
[8] = test system: SR
[9] = test system: NCI-H226
[10] = test system: K562
[11] = test system: A549
[12] = test system: CAKI-1
[13] = test system: A498
[14] = test system: 786-0
[15] = test system: DU-145
[16] = test system: PC-3
[17] = test system: TK-10
[18] = test system: SK-MEL-5
[19] = test system: HCT-116
[20] = test system: UACC-62
[21] = test system: SF-295
[22] = test system: MCF7
[23] = test system: ACHN
[24] = test system: M14
[25] = test system: Hs-578T
[26] = test system: EKVX
[27] = test system: HCT-15
[28] = test system: NCI-H522
[29] = test system: SN12C
[30] = test system: NCI/ADR-RES
[31] = test system: UACC-257
[32] = test system: MDA-MB-231
[33] = test system: MDA-N
[34] = test system: NCI-H460
[35] = test system: NCI-H23
[36] = test system: MOLT-4
[37] = test system: IGROV-1
[38] = test system: HOP-62
[39] = test system: SK-MEL-28
[40] = test system: BT-549
[41] = test system: CCRF-CEM
[42] = test system: OVCAR-5
[43] = test system: OVCAR-8
[44] = test system: SK-OV-3
[45] = test system: KM12
[46] = test system: SF-268
[47] = test system: Malme-3M
[48] = test system: SW-620
[49] = test system: LOX IMVI
[50] = test system: T47D
[51] = test system: COLO 205
[52] = test system: HCC 2998
[53] = test system: SF-539
[54] = test system: RXF 393
[55] = test system: OVCAR-4
[56] = test system: HT-29
[57] = test system: UO-31
[58] = test system: HOP-92
[59] = test system: HL-60

SMILES: Cc1nc(Cl)c(CBr)c(Cl)n1
- GI50 [1]: 3.68 µM (inactive)
- GI50 [2]: 1.87 µM (inactive)
- GI50 [3]: 1 µM (active)
- GI50 [4]: 2.04 µM (inactive)
- GI50 [5]: 1.64 µM (inactive)
- GI50 [6]: 0.889 µM (active)
- GI50 [7]: 0.596 µM (active)
- GI50 [8]: 0.0813 µM (active)
- GI50 [9]: 2.7 µM (inactive)
- GI50 [10]: 0.21 µM (active)
- GI50 [11]: 6.3 µM (inactive)
- GI50 [12]: 2.28 µM (inactive)
- GI50 [13]: 11.7 µM (inactive)
- GI50 [14]: 0.275 µM (active)
- GI50 [15]: 2.58 µM (inactive)
- GI50 [16]: 1.63 µM (inactive)
- GI50 [17]: 2.08 µM (inactive)
- GI50 [18]: 0.914 µM (active)
- GI50 [19]: 0.285 µM (active)
- GI50 [20]: 1.38 µM (inactive)
- GI50 [21]: 8.45 µM (inactive)
- GI50 [22]: 0.769 µM (active)
- GI50 [23]: 1.71 µM (inactive)
- GI50 [24]: 0.427 µM (active)
- GI50 [25]: 1.49 µM (inactive)
- GI50 [26]: 5.87 µM (inactive)
- GI50 [27]: 1.61 µM
- GI50 [28]: 0.518 µM (active)
- GI50 [29]: 1.73 µM (inactive)
- GI50 [30]: 2.41 µM (inactive)
- GI50 [31]: 0.832 µM (active)
- GI50 [32]: 1.95 µM (inactive)
- GI50 [33]: 1.44 µM (inactive)
- GI50 [34]: 2.33 µM (inactive)
- GI50 [35]: 1.62 µM (inactive)
- GI50 [36]: 0.33 µM (active)
- GI50 [37]: 1.72 µM (inactive)
- GI50 [38]: 1.91 µM (inactive)
- GI50 [39]: 1.49 µM (inactive)
- GI50 [40]: 0.272 µM (active)
- GI50 [41]: 0.152 µM (active)
- GI50 [42]: 2.05 µM (inactive)
- GI50 [43]: 1.72 µM (inactive)
- GI50 [44]: 3.84 µM (inactive)
- GI50 [45]: 1.03 µM (active)
- GI50 [46]: 2.69 µM (inactive)
- GI50 [47]: 0.838 µM (active)
- GI50 [48]: 0.351 µM (active)
- GI50 [49]: 0.585 µM (active)
- GI50 [50]: 1.88 µM (inactive)
- GI50 [51]: 1.66 µM (inactive)
- GI50 [52]: 3.64 µM (inactive)
- GI50 [53]: 1.97 µM (inactive)
- GI50 [54]: 2.11 µM (inactive)
- GI50 [55]: 1.83 µM (inactive)
- GI50 [56]: 0.728 µM (active)
- GI50 [57]: 1.68 µM (inactive)

SMILES: COc1ccc(CCN2CCN(CCc3ccc(OC)cc3)CC2)cc1
- GI50 [1]: > 100 µM (inactive)
- GI50 [2]: > 100 µM (inactive)
- GI50 [4]: > 100 µM (inactive)
- GI50 [5]: > 100 µM (inactive)
- GI50 [6]: > 100 µM (inactive)
- GI50 [7]: > 100 µM (inactive)
- GI50 [9]: > 100 µM (inactive)
- GI50 [10]: > 100 µM (inactive)
- GI50 [11]: > 100 µM (inactive)
- GI50 [12]: > 100 µM (inactive)
- GI50 [13]: > 100 µM (inactive)
- GI50 [14]: > 100 µM (inactive)
- GI50 [15]: > 100 µM (inactive)
- GI50 [16]: > 100 µM (inactive)
- GI50 [17]: > 100 µM (inactive)
- GI50 [58]: > 100 µM (inactive)
- GI50 [18]: > 100 µM (inactive)
- GI50 [19]: > 100 µM (inactive)
- GI50 [20]: > 100 µM (inactive)
- GI50 [21]: 46.6 µM (inactive)
- GI50 [22]: > 100 µM (inactive)
- GI50 [23]: > 100 µM (inactive)
- GI50 [24]: > 100 µM (inactive)
- GI50 [25]: > 100 µM (inactive)
- GI50 [26]: > 100 µM (inactive)
- GI50 [27]: > 100 µM
- GI50 [28]: > 100 µM (inactive)
- GI50 [29]: > 100 µM (inactive)
- GI50 [30]: > 100 µM (inactive)
- GI50 [31]: > 100 µM (inactive)
- GI50 [32]: > 100 µM (inactive)
- GI50 [33]: > 100 µM (inactive)
- GI50 [34]: > 100 µM (inactive)
- GI50 [35]: > 100 µM (inactive)
- GI50 [36]: > 100 µM (inactive)
- GI50 [37]: > 100 µM (inactive)
- GI50 [38]: > 100 µM (inactive)
- GI50 [39]: > 100 µM (inactive)
- GI50 [40]: > 100 µM (inactive)
- GI50 [41]: > 100 µM (inactive)
- GI50 [42]: > 100 µM (inactive)
- GI50 [43]: > 100 µM (inactive)
- GI50 [59]: > 100 µM (inactive)
- GI50 [44]: > 100 µM (inactive)
- GI50 [45]: > 100 µM (inactive)
- GI50 [46]: > 100 µM (inactive)
- GI50 [47]: > 100 µM (inactive)
- GI50 [48]: > 100 µM (inactive)
- GI50 [49]: > 100 µM (inactive)
- GI50 [50]: > 100 µM (inactive)
- GI50 [51]: > 100 µM (inactive)
- GI50 [52]: > 100 µM (inactive)
- GI50 [53]: > 100 µM (inactive)
- GI50 [54]: 26.2 µM (inactive)
- GI50 [55]: > 100 µM (inactive)
- GI50 [56]: > 100 µM (inactive)
- GI50 [57]: > 100 µM (inactive)

SMILES: O=c1oc2ccc(Cl)cc2cc1-c1cn2ccccc2n1
- GI50 [2]: > 96.6 µM (inactive)
- GI50 [3]: 15.3 µM (inactive)
- GI50 [4]: 3.93 µM (inactive)
- GI50 [5]: > 100 µM (inactive)
- GI50 [6]: 80.9 µM (inactive)
- GI50 [7]: 33.7 µM (inactive)
- GI50 [8]: 32.9 µM (inactive)
- GI50 [9]: 20.9 µM (inactive)
- GI50 [10]: > 100 µM (inactive)
- GI50 [11]: 14.7 µM (inactive)
- GI50 [12]: 15.2 µM (inactive)
- GI50 [14]: 3.24 µM (inactive)
- GI50 [15]: > 61.9 µM (inactive)
- GI50 [16]: > 72.9 µM (inactive)
- GI50 [17]: 14.8 µM (inactive)
- GI50 [58]: 21.9 µM (inactive)
- GI50 [18]: > 100 µM (inactive)
- GI50 [19]: 6.64 µM (inactive)
- GI50 [20]: 13 µM (inactive)
- GI50 [21]: 8.38 µM (inactive)
- GI50 [22]: 24.5 µM (inactive)
- GI50 [23]: 2.64 µM (inactive)
- GI50 [24]: > 66.7 µM (inactive)
- GI50 [25]: 7.83 µM (inactive)
- GI50 [26]: 28.8 µM (inactive)
- GI50 [27]: > 100 µM
- GI50 [28]: 36.6 µM (inactive)
- GI50 [29]: 7.76 µM (inactive)
- GI50 [30]: 17.9 µM (inactive)
- GI50 [31]: > 94.4 µM (inactive)
- GI50 [32]: 8.97 µM (inactive)
- GI50 [33]: > 100 µM (inactive)
- GI50 [34]: 14.6 µM (inactive)
- GI50 [35]: 15.7 µM (inactive)
- GI50 [36]: > 100 µM (inactive)
- GI50 [37]: 29.2 µM (inactive)
- GI50 [38]: 3.67 µM (inactive)
- GI50 [39]: 96.8 µM (inactive)
- GI50 [40]: 34.5 µM (inactive)
- GI50 [41]: > 81.3 µM (inactive)
- GI50 [42]: 57.5 µM (inactive)
- GI50 [43]: 9.62 µM (inactive)
- GI50 [44]: 2.14 µM (inactive)
- GI50 [45]: > 100 µM (inactive)
- GI50 [46]: > 39.8 µM (inactive)
- GI50 [47]: 3.46 µM (inactive)
- GI50 [48]: 85.5 µM (inactive)
- GI50 [49]: 15 µM (inactive)
- GI50 [50]: > 61.2 µM (inactive)
- GI50 [51]: > 100 µM (inactive)
- GI50 [52]: > 100 µM (inactive)
- GI50 [53]: 8.09 µM (inactive)
- GI50 [54]: 13.7 µM (inactive)
- GI50 [55]: 13.7 µM (inactive)
- GI50 [56]: 17.7 µM (inactive)
- GI50 [57]: 4.72 µM (inactive)
